In patent US20080125408A1, “PENEM PRODRUG” (Pfizer Inc, priority 2006, published 2008):
Converted amounts (≈) assume the structure as drawn.

Columns and labels:
[1] = Human Intestinal Juice (HIJ) stability studies; assay type: in vitro ADME; settings: pooled HIJ from 4 subjects, buffered pH 7.4, 37° C., substrate 1-300 μM
Procedure: In the HIJ experiments, HIJ from 4 individual subjects (1 mL each) was pooled with 1 mL of 600 mM potassium phosphate buffer pH 7.4. Aliquots of 300 μL×6 of the buffered human intestinal juice were incubated at 37° C. following fortification of substrate at concentrations of 300, 100, 30, 10, 3, and 1 μM. Two prodrug compounds could be run at the same time. Samples of 35 μL were taken at 0, 0.5, 1, 2, 10, and 20 minutes and quenched with 70 μL of 80/20 acetonitrile/100 mM ammonium acetate pH 4.5 containing an internal standard (ampicillin, 5 μg/mL). Samples were centrifuged at 3000 g for 10 minutes and the supernatants transferred to injection vials. First order degradation of the prodrug was monitored by LC/MS/MS as described below. The percentage of prodrug remaining versus time at each concentration was fitted to a first order decay function to determine the substrate depletion rate constant or kdep. A linear-log plot of kdep versus concentration could be fitted with the following equation where: [formula] […] In Michaelis-Menton terms, intrinsic clearance CLint represents the ratio of Vmax/Km when [S] is well below the Km. Substrate units for these studies were reported in μM and intrinsic clearance (CIint) in mL/min.

[2] = Liver S9 stability and conversion efficiency to sulopenem; assay type: in vitro ADME, human
Procedure: Oral bioavailability can be predicted variously by factors including one or more of (1) GI tract stability, (2) Caco-2 permeability, (3) efficiency of conversion to sulopenem, and (4) high solubility. Accordingly, the sulopenem prodrugs of the invention were evaluated, as detailed below, for stability in human intestinal juice (HIJ), efficiency of conversion to sulopenem in human liver homogenate, whole blood conversion and solubility as measured in phosphate buffer pH 5.0. Liver S9 was prepared fresh from liver chunks stored at −70° C. for each analysis completed. Approximately 5 g of frozen liver tissue was homogenized to uniformity in 15 mL of ice cold 100 mM potassium phosphate (pH 7.4) buffer. The homogenate was then centrifuged at 9000 g for 20 minutes at 5° C. to isolate the S9 supernatant fraction. Each incubation was run at a 1:10 dilution of the S9 supernatant in 100 mM potassium phosphate (pH 7.4) buffer. Reactions (1 mL) were initiated by the addition of substrate (50 μM final) at 37° C. Stability and conversion efficiency were assessed in 1 mL incubations with heparinized whole blood at 37° C. For both S9 homogenates and whole blood incubations, aliquots (75 μL) were obtained at 0, 0.5, 1, 2, 3, 5, 10, and 20 minutes and quenched in 150 μL of 80/20 acetonitrile/100 mM ammonium acetate pH 4.5 containing an internal standard (ampicillin, 5 μg/mL). Samples were centrifuged at 3000 g for 10 minutes and the supernatants transferred to injection vials. First order degradation of the prodrug was monitored by LC/MS/MS as described below. Conversion to sulopenem was expressed as a percentage of the molar equivalent (50 μM) in a fortified sample. The results of the S9 and whole blood stability and conversion studies are shown in Table 2, where single values represent an average of two duplicate determinations.

[3] = Whole blood conversion efficiency to sulopenem; assay type: in vitro ADME; settings: heparinized whole blood, 37° C.
Procedure: Stability and conversion efficiency were assessed in 1 mL incubations with heparinized whole blood at 37° C. For both S9 homogenates and whole blood incubations, aliquots (75 μL) were obtained at 0, 0.5, 1, 2, 3, 5, 10, and 20 minutes and quenched in 150 μL of 80/20 acetonitrile/100 mM ammonium acetate pH 4.5 containing an internal standard (ampicillin, 5 μg/mL). Samples were centrifuged at 3000 g for 10 minutes and the supernatants transferred to injection vials. First order degradation of the prodrug was monitored by LC/MS/MS as described below. Conversion to sulopenem was expressed as a percentage of the molar equivalent (50 μM) in a fortified sample. The results of the S9 and whole blood stability and conversion studies are shown in Table 2, where single values represent an average of two duplicate determinations.

Caco-2 cells = test: Caco-2 permeability studies (A→B assay)
[4] = Equilibrium solubility in phosphate buffer pH 5; settings: equilibrium, 25 mM phosphate buffer (pH 5), ambient temperature, up to 48 hours

## CCCCc1oc(=O)oc1COC(=O)C1=C(S[C@H]2CC[S@@+]([O-])C2)S[C@@H]2[C@@H]([C@@H](C)O)C(=O)N12 [Compound 3, (5-(3-methylpropyl)-2-oxo-1,3-dioxol-4-yl)methyl (5R,6S)-6-[(1R)-1-hydroxyethyl]-7-oxo-3-[[(1R,3S)-tetrahydro-1-oxido-3-thienyl]thio]-4-thia-1-azabicyclo[3.2.0]hept-2-ene-2-carboxylate]
[1]
  HIJ CLint: 0.16 mL/min
  Km: 41 µM
[2]; conversion to sulopenem, % of molar equivalent (50 μM), liver S9 1:10, pH 7.4, 37° C.
  S9 Conv: 67%
[2]; prodrug degradation, liver S9 1:10, 50 μM, pH 7.4, 37° C.
  S9 Half-life: 6.09 min
[3]
  Whole Blood Conv: 84%
Caco-2 cells; Papp A→B, 100 μM prodrug, apical pH 6.5 / basolateral pH 7.4
  Caco-2 Permeability: 5.02 ×10⁻⁶ cm/s
Caco-2 cells; relative to comparative compound C1
  increase in Caco-2 permeability compared to C1: ~10 fold
[4]
  solubility: 809 µg/mL (≈ 1610 µM)
